Assay results reported in patent US20070021509A1, “Phosphate transport inhibitors” (priority 2001, published 2007).

Test system: phosphate uptake by rabbit intestinal Brush Border Membrane Vesicles (BBMV)
Assay: 33PO4 uptake in rabbit intestinal BBMV (HTS), phosphate transporter inhibition in vitro
Format: biochemical
Conditions: Table 14, in vitro, read-out: Phosphate Transport IC50
Outline: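 BBMV from duodenal mucosa of male New Zealand White rabbits, diluted to about 0.5-2.0 mg/mL protein. Uptake buffers carried 33PO4 at 200,000 CPM/19 μL. Controls: Na uptake buffer (max), plus 100 μM KH2PO4 pH 7.4 (mid), K uptake buffer (min).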

Row | IC50 [µM] | Structure (SMILES)
1 | 2.8 | O=C(Nc1cccc(C(F)(F)F)c1)Nc1ccc(F)c([N+](=O)[O-])c1 [Example 86, 1-(4-Fluoro-3-nitro-phenyl)-3-(3-trifluoromethyl-phenyl)-urea]
2 | 7.8 | COc1ccc(F)cc1CNC(=O)c1cc(Br)ccc1NS(=O)(=O)c1ccc(OC(F)(F)F)cc1 [Example 78, 5-Bromo-N-(5-fluoro-2-methoxy-benzyl)-2-(4-trifluoromethoxy-benzenesulfonylamino)-benzamide]
3 | 7.7 | O=C(Nc1cc(C(F)(F)F)cc(C(F)(F)F)c1)NC1CCCCC1 [Example 83, 1-Cyclohexyl-3-(3,5-Bistrifluoromethyl-phenyl)-urea]
4 | 11 | O=C(Nc1cccc(C(F)(F)F)c1)Nc1cccc(C(F)(F)F)c1 [Example 82, 1,3Bis(3-Trifluoromethylphenyl)urea]
5 | 26 | Cl.N=C(Nc1cc(C(F)(F)F)cc(C(F)(F)F)c1)Nc1cc(C(F)(F)F)cc(C(F)(F)F)c1 [Example 88, N,N′-Bis-(3,5-bis-trifluoromethyl-phenyl)-guanidine Hydrochloride]
6 | 16 | Cl.N=C(Nc1ccc(Cl)c(C(F)(F)F)c1)Nc1ccc(Cl)c(C(F)(F)F)c1 [Example 89, N,N′-Bis-(4-chloro-3-trifluoromethyl-phenyl)-guanidine Hydrochloride]
7 | 5.2 | O=C(NCc1ccc(OC(F)(F)F)cc1O)c1cc(Br)ccc1NS(=O)(=O)c1ccc(OC(F)(F)F)cc1 [Example 75, 5-Bromo-N-(2-hydroxy-4-trifluoromethoxy-benzyl)-2-(4-trifluoromethoxy-benzenesulfonylamino)-benzamide]
8 | 10 | O=C(Nc1cccc(C(F)(F)F)c1)Nc1cc(Cl)ccc1Cl [Example 85, 1-(2,5-Dichloro-phenyl)-3-(3-trifluoromethyl-phenyl)-urea]
9 | 13 | O=C(NCc1ccc(F)cc1)c1cc(Br)ccc1NS(=O)(=O)c1ccc(OC(F)(F)F)cc1 [Example 71, 5-Bromo-N-(4-fluoro-benzyl)-2-(4-trifluoromethoxy-benzenesulfonylamino)-benzamide]
10 | 6.3 | COc1ccccc1CNC(=O)c1cc(Br)ccc1NS(=O)(=O)c1ccc(OC(F)(F)F)cc1 [Example 70, 5-Bromo-N-(2-methoxy-benzyl)-2-(4-trifluoromethoxy-benzenesulfonylamino)-benzamide]
11 | 17 | Cl.N=C(Nc1ccc(C(F)(F)F)c(C(F)(F)F)c1)Nc1ccc(C(F)(F)F)c(C(F)(F)F)c1 [Example 90, N,N′-Bis-(3,4-bis-trifluoromethyl-phenyl)-guanidine Hydrochloride]
12 | 35 | Cl.N=C(Nc1ccc(Br)c(C(F)(F)F)c1)Nc1ccc(Br)c(C(F)(F)F)c1 [Example 87, N,N′-Bis-(4-bromo-3-trifluoromethyl-phenyl)-guanidine Hydrochloride]
13 | 11 | Cn1nc(C(C)(C)C)cc1C(=O)Nc1ccc(C(F)(F)F)cc1 [Example 84, 5-tert-Butyl-2-methyl-2H-pyrazole-3-carboxylic acid (4-trifluoromethyl-phenyl)-amide]
